Target: T1, casein kinase 1 epsilon (CK1 epsilon) (Homo sapiens, UniProt P49674)
T1 construct: Invitrogen Corporation (named as alternative)
Experiment: Filter-plate assay of ATP-33P, inhibition of casein phosphorylation by CK1 epsilon
Assay type: biochemical
Conditions: casein substrate, ATP 10 μM, 2 hours at ambient temperature
Method: The capacity of the compounds of the invention to inhibit the phosphorylation of casein by casein kinase 1 epsilon and delta may be evaluated according to the procedure described in US 2005/0131012.
Filter-Plate Assay of ATP-^33P for the Screening of CK1 Epsilon Inhibitors:
The effect of the compounds on inhibition of the phosphorylation of casein by the enzyme casein kinase 1 epsilon (CK1 epsilon) is measured, using a casein assay with filtration of ATP-^33P in vitro.
Casein kinase 1 epsilon (0.58 mg/ml) is obtained via fermentation and purification processes performed according to methods that are well known to those skilled in the art, or may also be obtained from Invitrogen Corporation™ (human CK1 epsilon).
The compounds are tested at five different concentrations so as to generate IC50 values, i.e. the concentration at which a compound is capable of inhibiting the enzymatic activity by 50%, or alternatively the percentage of inhibition at a concentration of 10 micromolar.
“U”-bottomed Falcon plates are prepared by placing 5 μL of solutions of the compounds according to the invention at concentrations of 10, 1, 0.1, 0.01 or 0.001 μM in various wells. The solutions of the compounds according to the invention at these various concentrations are prepared by diluting in a test buffer (50 mM Tris, pH 7.5, […], 2 mM DTT and 1 mM EGTA) a stock solution in DMSO at a concentration of 10 mM. Next, 5 μL of dephosphorylated casein are added to a final concentration of 0.2 μg/μL, 20 μl of CK1 epsilon to a final concentration of 3 ng/μl, and 20 μl of ATP-^33P to a final concentration of 0.02 μCi/μl mixed with cold ATP (10 μM final—approximately 2×10^6 CPM per well). The final total test volume per well is equal to 50 μl.
The “U”-bottomed Falcon® test plate mentioned above is vortexed, and then incubated at ambient temperature for 2 hours. After 2 hours, the reaction is stopped by adding an ice-cold solution of 65 μl of ATP (2 mM) prepared in test buffer.
100 μl of the reaction mixture are then transferred from the “U”-bottomed Falcon® plate into Millipore® MAPH filter plates, preimpregnated with 25 μl of ice-cold 100% TCA. […]
The plates are left to dry overnight at ambient temperature. […] The radiation emitted by each well is then measured for 2 minutes in a Packard® Topcount NXT scintillation counter, in which the values of CPM/well are measured.
The percentage inhibition of the capacity of the enzyme to phosphorylate the substrate (casein) is determined for each concentration of compound tested. These inhibition data expressed as percentages are used to calculate the IC50 value for each compound compared with the controls.
The kinetic studies determined the KM value for ATP as being 21 μM in this test system.

T1 sequence (P49674 whole entry): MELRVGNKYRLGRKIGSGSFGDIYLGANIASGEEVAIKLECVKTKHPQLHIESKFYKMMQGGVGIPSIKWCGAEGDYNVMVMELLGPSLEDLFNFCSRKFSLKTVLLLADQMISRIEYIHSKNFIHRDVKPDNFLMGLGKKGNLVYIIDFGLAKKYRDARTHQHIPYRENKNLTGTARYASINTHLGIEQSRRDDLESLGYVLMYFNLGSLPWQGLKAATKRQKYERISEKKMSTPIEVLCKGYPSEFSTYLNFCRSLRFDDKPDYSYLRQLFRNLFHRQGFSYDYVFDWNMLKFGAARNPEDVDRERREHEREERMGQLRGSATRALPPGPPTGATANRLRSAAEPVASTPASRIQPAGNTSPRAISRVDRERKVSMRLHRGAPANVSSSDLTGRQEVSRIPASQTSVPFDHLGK

IC50 [nM]	SMILES
134 to 166	CC(C)(O)CCN1CCN(c2ccc3nc(-c4ccc(F)cc4)c(-c4ccnnc4)n3n2)CC1 [compound 21, 4-{4-[2-(4-fluorophenyl)-3-pyridazin-4-yl-imidazo[1,2-b]pyridazin-6-yl]piperazin-1-yl}-2-methylbutan-2-ol]
54 to 69	CC(C)N1CC2CN(c3ccc4nc(-c5ccc(F)cc5)c(-c5ccnnc5)n4n3)CC2C1 (stereo not drawn) [compound 28, 2-(4-fluorophenyl)-6-(5-isopropylhexahydropyrrolo[3,4-c]pyrrol-2-(1H)-yl)-3-pyridazin-4-yl-imidazo[1,2-b]pyridazine]

System: not given
Experiment: not given
Conditions: not given

melting point [°C]	SMILES
197 to 199	CC(C)N1CCN(c2ccc3nc(-c4cccc(F)c4)c(-c4ccnnc4)n3n2)CC1 [compound 10, 2-(3-fluorophenyl)-6-(4-isopropylpiperazin-1-yl)-3-pyridazin-4-yl-imidazo[1,2-b]pyridazine]
182 to 184	Fc1ccc(-c2nc3ccc(N4CCC(N5CCCC5)C4)nn3c2-c2ccnnc2)cc1 (stereo not drawn) [compound 33, 6-[1,3]bipyrrolidinyl-1′-yl-2-(4-fluorophenyl)-3-pyridazin-4-yl-imidazo[1,2-b]pyridazine]
205 to 207	Fc1ccc(-c2nc3ccc(N4C[C@@H]5C[C@H]4CN5)nn3c2-c2ccnnc2)cc1 [compound 23, 6-((1S,4S)-2,5-diazabicyclo[2.2.1]hept-2-yl)-2-(4-fluorophenyl)-3-pyridazin-4-yl-imidazo[1,2-b]pyridazine]
197 to 199	C[C@@H]1CN(c2ccc3nc(-c4ccc(F)cc4)c(-c4ccnnc4)n3n2)C[C@H](C)N1 [compound 4, 6-(cis-3,5-dimethylpiperazin-1-yl)-2-(4-fluorophenyl)-3-pyridazin-4-yl-imidazo[1,2-b]pyridazine]
184 to 189	FCC1CN(c2ccc3nc(-c4ccc(F)cc4)c(-c4ccnnc4)n3n2)CCN1 (racemic) [compound 40, (+/−)-6-(3-fluoromethylpiperazin-1-yl)-2-(4-fluorophenyl)-3-pyridazin-4-ylimidazo[1,2-b]pyridazine]
226 to 228	CC1(C)CN(c2ccc3nc(-c4ccc(F)cc4)c(-c4ccnnc4)n3n2)CCN1 [Compound No. 3, 6-(3,3-dimethylpiperazin-1-yl)-2-(4-fluorophenyl)-3-pyridazin-4-yl-imidazo[1,2-b]pyridazine]
186 to 188	CN1CC2CN(c3ccc4nc(-c5ccc(F)c(F)c5)c(-c5ccnnc5)n4n3)CC2C1 (stereo not drawn) [compound 45, 2-(3,4-difluorophenyl)-6-(5-methylhexahydropyrrolo[3,4-c]pyrrol-2(1H)-yl)-3-pyridazin-4-ylimidazo[1,2-b]pyridazine]
156 to 158	FCCN1CCN(c2ccc3nc(-c4ccccc4)c(-c4ccnnc4)n3n2)CC1 [compound 7, 6-[4-(2-fluoroethyl)piperazin-1-yl]-2-phenyl-3-pyridazin-4-yl-imidazo[1,2-b]pyridazine]
148 to 150	CC(C)(O)CCN1CCN(c2ccc3nc(-c4ccc(F)cc4)c(-c4ccnnc4)n3n2)CC1 [compound 21, 4-{4-[2-(4-fluorophenyl)-3-pyridazin-4-yl-imidazo[1,2-b]pyridazin-6-yl]piperazin-1-yl}-2-methylbutan-2-ol]
255 to 257	Cc1cc(N2CC3CN(C)CC3C2)nn2c(-c3ccnnc3)c(-c3ccc(F)cc3)nc12 (stereo not drawn) [compound 44, 2-(4-fluorophenyl)-8-methyl-6-(5-methylhexahydropyrrolo[3,4-c]pyrrol-2(1H)-yl)-3-pyridazin-4-ylimidazo[1,2-b]pyridazine]
154 to 157	CN1CC2CN(c3ccc4nc(-c5ccccc5)c(-c5ccnnc5)n4n3)CC2C1 (stereo not drawn) [compound 41, 6-(5-methylhexahydropyrrolo[3,4-c]pyrrol-2(1H)-yl)-2-phenyl-3-pyridazin-4-ylimidazo[1,2-b]pyridazine]
196 to 198	Fc1ccc(-c2nc3ccc(N4CCC(N5CCCC5)CC4)nn3c2-c2ccnnc2)cc1 [compound 34, 2-(4-fluorophenyl)-3-pyridazin-4-yl-6-(4-pyrrolidin-1-yl-piperidin-1-yl)-imidazo[1,2-b]pyridazine]
183 to 184	Cc1cc(C)cc(-c2nc3ccc(N4CCN(C(C)C)CC4)nn3c2-c2ccnnc2)c1 [compound 13, 2-(3,5-dimethylphenyl)-6-(4-isopropylpiperazin-1-yl)-3-pyridazin-4-yl-imidazo[1,2-b]pyridazine]
200 to 202	CC(C)(O)CN1CCN(c2ccc3nc(-c4ccc(F)cc4)c(-c4ccnnc4)n3n2)CC1 [compound 20, 1-{4-[2-(4-fluorophenyl)-3-pyridazin-4-yl-imidazo[1,2-b]pyridazin-6-yl]piperazin-1-yl}-2-methylpropan-2-ol]
175 to 177	OCCN1C[C@@H]2C[C@H]1CN2c1ccc2nc(-c3ccc(F)cc3)c(-c3ccnnc3)n2n1 [compound 24, 2-{5-[2-(4-fluorophenyl)-3-pyridazin-4-yl-imidazo[1,2-b]pyridazin-6-yl]-(1S,4S)-2,5-diazabicyclo[2.2.1]hept-2-yl}-ethanol]
212 to 214	Fc1ccc(-c2nc3ccc(N4CCC5(CC4)CNCCO5)nn3c2-c2ccnnc2)cc1 [compound 32, 9-[2-(4-fluorophenyl)-3-pyridazin-4-yl-imidazo[1,2-b]pyridazin-6-yl]-1-oxa-4,9-diaza-spiro[5.5]undecane]
201 to 203	CC(C)N1C[C@@H]2C[C@H]1CN2c1ccc2nc(-c3ccc(F)cc3)c(-c3ccnnc3)n2n1 [compound 25, 2-(4-fluorophenyl)-6-(5-isopropyl-(1S,4S)-2,5-diazabicyclo[2.2.1]hept-2-yl)-3-pyridazin-4-yl-imidazo[1,2-b]pyridazine]
203 to 205	Fc1ccc(-c2nc3ccc(N4CCC5(CCCNC5)CC4)nn3c2-c2ccnnc2)cc1 [compound 31, 9-[2-(4-fluorophenyl)-3-pyridazin-4-yl-imidazo[1,2-b]pyridazin-6-yl]-2,9-diaza-spiro[5.5]undecane]
168 to 170	CN1CC2CN(c3ccc4nc(-c5cccc(F)c5)c(-c5ccnnc5)n4n3)CC2C1 (stereo not drawn) [compound 42, 2-(3-fluorophenyl)-6-(5-methylhexahydropyrrolo[3,4-c]pyrrol-2(1H)-yl)-3-pyridazin-4-ylimidazo[1,2-b]pyridazine]

Reference: patent publication US8455491B2, “6-cycloamino-3-(pyridazin-4-yl)imidazo[1,2-b]pyridazine and derivatives and pharmaceutical compositions comprising the same” (Sanofi, priority 2007, dated 2013)
